Experimental data: paper PMC4767442 (Oncotarget, 2015)

Tests used:
[1] = test system: HL-60 human promyelocytic leukemia cell line; assay: MTT proliferation/viability assay, HL-60; assay type: cell-based; details: 72 h/37°C, mean ± S.D.
Experimental: (§1) The MCF-7 human breast adenocarcinoma cell line was purchased from the European Collection of Cell Cultures (U.K.). The HL-60 human promyelocytic leukemia cell line, HCT116 human colorectal carcinoma cell line, H9c2 rat heart-derived myoblast cell line and 3T3 mouse embryo fibroblast line, were obtained from the American Type Culture Collection (VA, U.S.A.). Cells were cultured in Dulbecco's modified Eagle's medium (DMEM, Lonza, Switzerland) with or without (for MCF-7 cells only) phenol red, supplemented with 10% heat-inactivated fetal bovine serum (FBS; Lonza, Switzerland), 1% penicillin/streptomycin solution (Lonza, Switzerland) and 10 mM HEPES buffer (pH 7.0-7.6; Sigma-Aldrich, Germany). The HL-60 cell line was maintained in RPMI medium (Sigma-Aldrich, Germany) supplemented with 10% heat-inactivated FBS and 1% penicillin/streptomycin solution. All cell lines were cultured in 75 cm^2 tissue culture flasks (Switzerland) at 37°C in a humidified atmosphere of 5% CO2. Sub-confluent cells or, in the case of HL-60 cells, a cell suspension, were sub-cultured every 3-4 days.
(§2) Cells were seeded in 96-well plates for 24 h/37°C at a density of 5,000 (MCF-7), 10,000 (HL-60), 2,000 (HCT116) and 10,000 (3T3 and H9c2) cells/well. For 3T3 and H9c2 cells, the medium was changed to serum- and pyruvate-free DMEM 24 h prior to the experiments. Anti-proliferative and cytotoxicity effects of the compounds were studied at different concentrations after incubations for 72 h/37°C. Viabilities of cells were determined using MTT assays (Sigma-Aldrich, Germany) according to the manufacturer's instructions on a Tecan Infinite 200M plate reader (Tecan, Austria). The proliferation/viability of treated groups was expressed as a percentage of the untreated controls (100%).

[2] = test system: MCF-7 human breast adenocarcinoma cell line; assay: MTT proliferation/viability assay, MCF-7; assay type: cell-based; details: MCF7, 72 h/37°C, mean ± S.D.
Experimental: as §1, §2

[3] = test system: HCT116 human colorectal carcinoma cell line; assay: MTT proliferation/viability assay, HCT116; assay type: cell-based; details: HCT-116, 72 h/37°C, mean ± S.D.
Experimental: as §1, §2

[4] = test system: H9c2 rat heart-derived myoblast cell line; assay: MTT proliferation/viability assay, H9c2; assay type: cell-based; details: 72 h/37°C, mean ± S.D., serum- and pyruvate-free DMEM
Experimental: as §1, §2

[5] = test system: 3T3 mouse embryo fibroblast line; assay: MTT proliferation/viability assay, 3T3; assay type: cell-based; details: 72 h/37°C, mean ± S.D., serum- and pyruvate-free DMEM
Experimental: as §1, §2

[6] = test system: cellular labile iron pools; assay: Fluorimetric calcein-AM assay of intracellular iron chelation; assay type: cell-based; details: 10 μmol·L^−1
Experimental: (§3) Iron chelation efficiency of the compounds at a concentration of 10 μmol·L^−1 was determined via 3 methods: (1) the calcein assay; (2) the ability of the ligands to induce ^59Fe mobilization from cells prelabeled with ^59Fe-transferrin; and (3) the efficacy of these agents to inhibit the uptake of ^59Fe from ^59Fe-transferrin [22, 38–40].
(§4) The fluorimetric calcein-AM assay was performed by established methods, as described previously. The Fe chelation efficiency of the metabolites in cells was expressed as a percentage of that of the parent chelator, Dp44mT or DpC (100%). For studies assessing the ability of these agents to induce ^59Fe mobilization and inhibit ^59Fe uptake from ^59Fe-transferrin by cells, human transferrin (Sigma-Aldrich, Germany) was labeled with ^59Fe (PerkinElmer, MA, USA) to generate ^59Fe-transferrin at a final specific activity of 500 pCi/pmol Fe, as previously described. The unbound ^59Fe was removed by exhaustive vacuum dialysis against a large excess of 0.15 M NaCl buffered to pH 7.4 with 1.4% NaHCO3 by standard methods.

MCF-7 cells [7] = assay: 59Fe mobilization from cells prelabeled with 59Fe-transferrin; assay type: cell-based, human; details: MCF-7 prelabeled with 59Fe-transferrin, compounds 25 μmol·L^−1, 3 h/37°C
Experimental: as §3, §4
(§5) To examine the ability of the studied substances to mobilize ^59Fe from MCF-7 cells or inhibit ^59Fe uptake from ^59Fe-transferrin, established techniques were utilized. For ^59Fe mobilization studies, cells were preincubated with ^59Fe-transferrin (0.75 μmol·L^−1) for 3 h/37°C, washed 4 times at 4°C on ice, and then reincubated with control medium or control medium containing the compounds (25 μmol·L^−1) for 3 h/37°C. The release of ^59Fe from the cells into the overlying medium was then examined by collecting both the cells and overlying medium and assessing ^59Fe levels using a γ-counter. For studies examining the ability of the agents to inhibit ^59Fe uptake from ^59Fe-transferrin, cells were incubated for 3 h/37°C with ^59Fe-transferrin (0.75 μmol·L^−1) in the presence or absence of the agents (25 μmol·L^−1), and then washed 4 times at 4°C on ice. The internalization of ^59Fe by cells was then assessed by incubation for 30 min/4°C with the general protease, Pronase (1 mg/mL), utilizing standard techniques. The amount of internalized ^59Fe in the presence of the agents was expressed as a percentage of ^59Fe internalized by control cells incubated in the presence of control media alone.

MCF-7 cells [8] = assay: Inhibition of internalized 59Fe uptake from 59Fe-transferrin; assay type: cell-based, human; details: MCF-7, compounds 25 μmol·L^−1, 3 h/37°C
Experimental: as §3, §4, §5

[9] = Pharmacokinetics after single i.v. administration to rats (plasma, UHPLC-MS/MS); assay type: in vivo, Wistar rats
Experimental: Male Wistar rats (230-310 g; n = 22) obtained from Velaz (Czech Republic) were kept in an air-conditioned room under a 12 h light-dark cycle, constant temperature and humidity and had free access to water and a standard laboratory pellet diet for rodents. All animal handling and procedures were approved and supervised by the Animal Welfare Body of the Faculty of Medicine in Hradec Kralove, Charles University in Prague. The investigation conformed to the Guide for the Care and Use of Laboratory Animals.
The rats were anaesthetized with pentobarbital (30 mg^.kg^−1; i.p.) and then the vena jugularis and arteria carotis were prepared for drug administration and blood sample collection, respectively. Both Dp44mT and DpC were dissolved in a mixture of saline, PEG 300 and ethanol (5:4:1, v/v/v) and administered to rats at a dose of 2 mg^.kg^−1, as a slow i.v. bolus. Blood was then collected into EDTA-containing tubes, immediately centrifuged and the plasma kept at −80°C until being analyzed. The blood withdrawn from animals was compensated with an appropriate volume of saline. The animals were sacrificed by pentobarbital overdose.
Initially, for both compounds, rats (n = 2, in each group) were used for the in-vivo investigation of the thiosemicarbazone metabolites and also the preparation of the quantitative analytical method. For the full PK study, 6 rats were used for each compound (group 1) and the blood was sampled at 4, 10, 30, 60, 120, 240 and 360 min post-administration.
Due to the markedly slower elimination of DpC, an additional in-vivo study was performed to appropriately describe the elimination phase of this drug. The conscious rats (n = 8, group 2) were administered DpC (2 mg^.kg^−1) via slow i.v. bolus to the vena saphena. Blood was sampled from the retro-orbital plexus under light ether anesthesia during the following time intervals: 120, 360, 600, 1440 and 1800 min. Plasma samples were treated and analyzed using the analytical methods described below in the Section: UHPLC-MS/MS methods for quantitative assay of the drugs and their metabolites.
Standard non-compartmental analysis was performed implementing Kinetica software (version 4.0, Thermo Fisher Scientific Inc., MA, U.S.A.). […] Maximum concentration (Cmax) and the time to maximum concentration (Tmax) were determined directly from the geometric mean vs. time profiles and from individual profiles. The area under the mean plasma concentration–time curve from zero up to the last sampling interval (AUC0-tlast) was calculated by a combination of the linear and log-linear trapezoidal methods. The area under the mean plasma concentration–time curve from zero up to infinity (AUC) was determined as the sum of the AUC0–tlast and of the extrapolated part (i.e., the ratio of the concentration predicted at the time interval of tlast and the terminal rate constant, λz). The λz was estimated by linear regression of the log transformed concentrations in the terminal part of the curve.
Population pharmacokinetic modeling was performed using non-linear, mixed effect modeling as implemented in Monolix, version 4 (http://wfn.software.monolix.org). Pharmacokinetic parameters were estimated by computing the maximum likelihood estimator of the parameters without any approximation of the model (no linearization). This was performed using the Stochastic Approximation Expectation Maximization (SAEM) algorithm combined with a Markov chain Monte Carlo procedure. The between-animal variability in model parameters were ascribed to an exponential model and a proportional model was used to describe the residual variability. The goodness-of-fit was assessed by using several diagnostic plots (observed and predicted concentrations vs. time; observed concentrations vs. population predictions; weighted residuals vs. time; and weighted residuals vs. predictions). Individual parameter values were obtained as empirical Bayes estimates. […]

[10] = Long-term stability in plasma samples at -80°C; assay type: in vitro ADME, rat; details: for Long-term stability: plasma, -80°C, 7 days
Experimental: (§6) The UHPLC-MS/MS methods for quantitative assays were validated with respect to selectivity, linearity, precision, accuracy, stability, recovery, matrix effects and dilution integrity (see […]
Linearity was examined over the concentration ranges described in Supplementary Table 1 using a weighted (1/x 2) linear regression in GraphPad Prism 6 (v. 6.04, GraphPad Software […]
(§7) Stability was assessed at low, medium and high concentration levels. Long -term stability was assessed for plasma samples at -80°C over a period of 7 days (three aliquots per level; Supplementary Table 3). […]

[11] = Post-preparative stability in the autosampler at 10°C; assay type: physicochemical; details: for Post-preparative stability: autosampler 10°C, 24 h
Experimental: as §6
Supplementary Table 1-3). […]
as §7

[12] = high concentration level (2.105-3.115 µmol·L-1)
[13] = low concentration level (0.035-0.156 µmol·L-1)
[14] = medium concentration level (0.702-1.558 µmol·L-1)

Structure (SMILES)	IC50 [1] [µM]	IC50 [2] [µM]	IC50 [3] [µM]	IC50 [4] [µM]	IC50 [5] [µM]	intracellular Fe chelation efficacy (in words) [6]	59Fe mobilization (in words) (MCF-7 cells [7])	inhibition of 59Fe uptake from 59Fe-transferrin (in words) (MCF-7 cells [8])	further results
O=C(c1ccccn1)c1ccccn1 [DpK, di(2-pyridyl)ketone]	> 1000	> 1000	> 1000	> 1000	> 1000	lower ability to bind intracellular Fe than their parent ligands	no greater than the control	did not have any significant (p>0.05) effect	–
CN(C)C(=O)NN=C(c1ccccn1)c1ccccn1 [Dp44mS, di(2-pyridyl)ketone 4,4-dimethylsemicarbazone]	27.3 ± 3.56	29.4 ± 8.63	9.31 ± 1.58	367 ± 63.4	139 ± 28.9	lower ability to bind intracellular Fe than their parent ligands	approximately half as effective as Dp44mT	–	internalized 59Fe uptake from 59Fe-transferrin, % of the control (MCF-7 cells [8]): 64%
CNC(=S)NN=C(c1ccccn1)c1ccccn1 [Dp4mT, di(2-pyridyl)ketone 4-methyl-3-thiosemicarbazone]	–	–	–	–	–	–	–	–	Cmax ([9]; male, Wistar, rat, plasma, iv, 2 mg/kg, rats, i.v. 2 mg·kg^−1, non-compartmental analysis of geometric mean plasma curves, Dp4mT = metabolite after Dp44mT dosing, read-out: Cmax): 496 nM; Tmax ([9]; male, Wistar, rat, plasma, iv, 2 mg/kg, rats, i.v. 2 mg·kg^−1, non-compartmental analysis, Dp4mT = metabolite after Dp44mT dosing, read-out: Tmax (converted)): 0.167 h; AUC(0-inf) ([9]; male, Wistar, rat, plasma, iv, 2 mg/kg, rats, i.v. 2 mg·kg^−1, non-compartmental analysis, read-out: AUC (zero to infinity)): 0.748 µM·h; half-life ([9]; male, Wistar, rat, plasma, iv, 2 mg/kg, rats, i.v. 2 mg·kg^−1, non-compartmental analysis, read-out: t1/2 (elimination half-life) (converted)): 2 h; AUC(0-t) ([9]; male, Wistar, rat, plasma, iv, 2 mg/kg, read-out: AUC0-tlast): 0.671 µM·h; lamdaz (terminal rate constant of elimination) ([9]; rats, i.v. 2 mg·kg^−1, non-compartmental analysis): 0.346 h⁻¹; Long-term stability [10, 12]: 90.82%; Long-term stability [10, 13]: 94.78%; Long-term stability [10, 14]: 90.83%; decomposition on storage (in words) ([10]; up to 7 days stored at −80°C): No significant decomposition; decomposition on storage (in words) ([11]; 24 h storage in the autosampler at 10°C): No significant decomposition; Post-preparative stability [11, 12]: 95.44%; Post-preparative stability [11, 13]: 100.24%; Post-preparative stability [11, 14]: 111.72%
CN(C(=O)NN=C(c1ccccn1)c1ccccn1)C1CCCCC1 [DpC-S, di(2-pyridyl)ketone 4-cyclohexyl-4-methylsemicarbazone]	2.57 ± 0.33	3 ± 0.81	3.03 ± 0.91	5.59 ± 0.82	12.8 ± 2.87	lower ability to bind intracellular Fe than their parent ligands	comparable to DpC	marked and similar to DpC	–
